The source of these data is PMC7773830, “Necator americanus Ancylostoma Secreted Protein-2 (Na-ASP-2) Binds an Ascaroside (ascr#3) in Its Fatty Acid Binding Site” (Frontiers in Chemistry, 2020).

Like-named read-outs stand apart in the source and are kept apart here.

Test [1] deals with T1, Pry1 (Saccharomyces cerevisiae, UniProt P47032).
T1 construct: made in house; host or cells: Escherichia coli BL21
T1 sequence (P47032 20-299): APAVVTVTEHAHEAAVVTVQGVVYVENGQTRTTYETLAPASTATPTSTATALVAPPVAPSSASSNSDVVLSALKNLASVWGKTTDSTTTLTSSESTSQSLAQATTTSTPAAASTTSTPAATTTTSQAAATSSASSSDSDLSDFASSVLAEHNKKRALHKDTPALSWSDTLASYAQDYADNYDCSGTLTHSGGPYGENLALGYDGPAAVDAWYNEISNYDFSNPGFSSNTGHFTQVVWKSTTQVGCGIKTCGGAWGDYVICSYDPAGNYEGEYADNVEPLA
In words: Microscale thermophoresis. Conditions: His-tagged Pry1, N/A where there is no binding, mean ± SD of three experiments. As for the experimental part:
(§1) Microscale thermophoresis was performed using a Monolith NT.115 from Nanotemper Technologies (Munich, Germany) (Seidel et al., [2012]; Shang et al., [2012]; Zillner et al., [2012]). His-tagged protein (Pry1 or Na-ASP-2) was fluorescently labeled using the RED-tris-NTA His-tag protein labeling kit (Nanotemper Technologies). Labeled protein (Pry1 or Na-ASP-2) was subsequently added to serial dilution of unlabeled ligand (ascarosides or their fatty acid moieties) in binding buffer (20 mM Tris pH 7.5, 30 mM NaCl, 0.05% Triton X-100). Each sample was loaded into standard glass capillaries, and measurements were performed at 60% laser power setting. Dissociation constant Kd was obtained by plotting the normalized fluorescence (Fnorm) against the logarithm of ligand concentration. Experiments were performed in triplicates and the Kd model of the MO Affinity Analysis software (Nanotemper Technologies, Munich, Germany) was used for data fitting.
(§2) Figure 5 Na-ASP-2 selectively binds ascr#3 but not oscr#10. Binding of ascarosides and their fatty acid moieties by Pry1 and Na-ASP-2 as measured by microscale thermophoresis. (A,G) Palmitic acid; (B,H) ascr#3; (C,I) oscr#10; (D,J) (R)-8-hydroxynonanoic acid; (E,K) (R, E)-8-hydroxynon-2-enoic acid; (F,L) 9-hydroxynonanoic acid. Pry1 binds palmitic acid and free hydroxylated nanonoic acids with similar affinities but binds neither the ascarosides ascr#3 and oscr#10. Na-ASP-2 binds palmitic acid, ascr#3 and free hydroxylated nanonoic acids with similar affinities but not oscr#10. The Kd values are indicated in each figure with N/A (not applicable) where there is no binding. Data represent mean ± SD of three independent experiments.
On the technique in general: MST reads how a fluorescent partner responds to local heating, with and without ligand.

The target of test [2] is T2, Na-ASP-2 (Necator americanus, UniProt Q7Z1H1). In words: Microscale thermophoresis. The test is classed as binding. How it is done:
as §1, §2

Test [3] addresses T2, Na-ASP-2. Briefly: [3H]-palmitic acid radioligand binding and competition assay. Particulars: for competition with [3H]-palmitic acid for binding to Na-ASP-2: 50 or 500 pmol unlabeled ligand vs 50 pmol [3H]-palmitic acid, 100 pmol Na-ASP-2. How it is done:
(§3) The radioligand binding assay was performed as described previously (Im et al., [2005]; Choudhary and Schneiter, [2012]). Hundred pmol of purified untagged CAP protein (Na-ASP-2 or Pry1) in binding buffer (20 mM Tris, pH 7.5, 30 mM NaCl, 0.05% Triton X-100) was incubated for 1 h at 30 °C with different concentrations of either [^3H]-cholesterol or [^3H]-palmitic acid. Protein was removed from unbound ligand by adsorption to Q-sepharose beads (GE Healthcare, USA), the beads were washed, protein was eluted and the protein-bound radioligand was quantified by scintillation counting. For competition binding assays, specified concentrations of unlabeled cholesterol, palmitic acid or ligands, were included in the binding reaction. Non-specific binding was determined by performing the assays without the addition of protein. Statistical significance of data was analyzed by multiple t-test (GraphPad Prism, La Jolla, CA).
Figure 3 Na-ASP-2 binds both cholesterol and free palmitic acid. (A) Ligand binding of [^3H]-cholesterol to Na-ASP-2. Purified Na-ASP-2 (100 pmol) was incubated with increasing concentrations of [^3H]-cholesterol (100–400 pmol), in absence and presence of 400 pmol of unlabeled cholesterol (chol). The protein was separated from the unbound ligand by adsorption to an anion-exchange matrix and the protein-bound radioligand was quantified by scintillation counting. […] Data represent mean ± SD of 3 independent experiments. […] Binding of [^3H]-cholesterol (50 pmol) to Na-ASP-2 (100 pmol) was assessed in the presence of the indicated concentrations of unlabeled cholesterol (chol). […] Binding of [^3H]-palmitic acid (50 pmol) to Na-ASP-2 (100 pmol) was assessed in the presence of the indicated concentration of unlabeled palmitic acid (pal). […]
(§4) Figure 4 Binding of ligands to Na-ASP-2 and Pry1. […] Binding of [^3H]-cholesterol (50 pmol) to Na-ASP-2 (100 pmol) was assessed in the presence of (50 pmol and 500 pmol) of unlabeled ascarosides or fatty acid moieties (1-5) (B) Fatty acids moieties and ascr#3 compete with [^3H]-palmitic acid for binding to Na-ASP-2. […]

Test [4] deals with T1, Pry1. In words: [3H]-palmitic acid competition binding assay. Particulars: 100 pmol Pry1; for competition with [3H]-palmitic acid for binding to Pry1, excess ligand: excess unlabeled ligand (500 pmol) vs 50 pmol [3H]-palmitic acid; for competition with [3H]-palmitic acid for binding to Pry1: unlabeled ligand vs 50 pmol [3H]-palmitic acid. As for the experimental part:
as §3
Figure 4 Binding of ligands to Na-ASP-2 and Pry1. (A) Free fatty acids and ascarosides fail to compete with [^3H]-cholesterol for binding to Na-ASP-2. Binding of [^3H]-cholesterol (50 pmol) to Na-ASP-2 (100 pmol) was assessed in the presence of (50 pmol and 500 pmol) of unlabeled ascarosides or fatty acid moieties (1-5) (B) Fatty acids moieties and ascr#3 compete with [^3H]-palmitic acid for binding to Na-ASP-2. (C) Only fatty acids moieties compete [^3H]-palmitic acid for binding to Pry1. Competitive binding was tested with either 50 or 500 pmol of the unlabeled ligands and 50 pmol of [^3H]-palmitic acid for binding to 100 pmol purified Na-ASP-2 or Pry1. The ascarosides tested are (1) (ascr#3) and (2) (oscr#10) while the fatty acids are 3 [(R)-8-hydroxynonanoic acid], 4 [(R, E)-8-hydroxynon-2-enoic acid], and 5 (9-hydroxynonanoic acid). Data represent mean ± SD of 3 independent experiments. Asterisks denote statistical significance relative to the control containing only the radiolabeled ligand and either purified Na-ASP-2 or Pry1. (**p < 0.001; *p < 0.01). n.s., not significant.

The target in test [5] is T2, Na-ASP-2. In words: [3H]-cholesterol radioligand binding and competition assay. Conditions: for competition with [3H]-cholesterol for binding to Na-ASP-2: unlabeled ligand vs 50 pmol [3H]-cholesterol, 100 pmol Na-ASP-2. How it is done:
as §3
Figure 3 Na-ASP-2 binds both cholesterol and free palmitic acid. (A) Ligand binding of [^3H]-cholesterol to Na-ASP-2. Purified Na-ASP-2 (100 pmol) was incubated with increasing concentrations of [^3H]-cholesterol (100–400 pmol), in absence and presence of 400 pmol of unlabeled cholesterol (chol). The protein was separated from the unbound ligand by adsorption to an anion-exchange matrix and the protein-bound radioligand was quantified by scintillation counting. […] Data represent mean ± SD of 3 independent experiments. (B) Competitive binding of unlabeled cholesterol (50 or 5,000 pmol) to Na-ASP-2. Binding of [^3H]-cholesterol (50 pmol) to Na-ASP-2 (100 pmol) was assessed in the presence of the indicated concentrations of unlabeled cholesterol (chol). Each data point is the average of duplicate assays and represents the amount of [^3H]-cholesterol bound relative to a control containing no unlabeled cholesterol. (C) Ligand binding of [^3H]-palmitic acid to Na-ASP-2. Purified Na-ASP-2 (100 pmol) was incubated with increasing concentrations of [^3H]-palmitic acid (100–400 pmol), in absence and presence of 400 pmol of unlabeled palmitic acid (pal). (D) Competitive binding of unlabeled palmitic acid (50 or 5,000 pmol) to Na-ASP-2. Binding of [^3H]-palmitic acid (50 pmol) to Na-ASP-2 (100 pmol) was assessed in the presence of the indicated concentration of unlabeled palmitic acid (pal). Each data point is the average of duplicate assays and represents the amount of [^3H]-palmitic acid bound relative to a control containing only labeled palmitic acid. […]
as §4

Test [6] addresses Hp-VAL-4. More on the design: method as in earlier work. Particulars: ref Kelleher et al., 2014, Darwiche et al., 2016, 2018, Asojo et al., read-out: cholesterol binding affinity; cited from earlier work.
The target of test [7] is Bm-VAL-1. Further details: method as in earlier work. Conditions: ref Kelleher et al., 2014, Darwiche et al., 2016, 2018, Asojo et al., read-out: cholesterol binding affinity; cited from earlier work.
The target in test [8] is Sm-VAL-4. More on the design: method as in earlier work. Conditions: ref Kelleher et al., 2014, Darwiche et al., 2016, 2018, Asojo et al., read-out: cholesterol binding affinity; cited from earlier work.
Test [9] addresses Pry1. More on the design: method as in earlier work. Particulars: ref Kelleher et al., 2014, Darwiche et al., 2016, 2018, Asojo et al., read-out: Kd for palmitic acid; cited from earlier work.
In test [10] the target is tablysin-15. Particulars: ref Kelleher et al., 2014, Darwiche et al., 2016, 2018, Asojo et al., read-out: Kd for palmitic acid; cited from earlier work.
In test [11] the target is Bm-VAL-1. Further details: method as in earlier work. Particulars: ref Kelleher et al., 2014, Darwiche et al., 2016, 2018, Asojo et al., read-out: Kd for palmitic acid; cited from earlier work.

T2 sequence (Q7Z1H1 entry or part of it): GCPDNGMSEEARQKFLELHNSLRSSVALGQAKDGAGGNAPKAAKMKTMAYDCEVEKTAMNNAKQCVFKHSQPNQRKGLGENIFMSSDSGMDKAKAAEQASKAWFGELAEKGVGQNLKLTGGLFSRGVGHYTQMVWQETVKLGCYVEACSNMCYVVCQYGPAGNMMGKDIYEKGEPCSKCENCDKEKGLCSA

Regarding `O=C(O)CCCCCCCCO` [9-hydroxynonanoic acid], the Kd in test [1] (read-out: Kd) stood at 650 ± 1.7 µM; in test [2], 230 ± 2.5 µM.
As for `C[C@@H](O)CCCCCCC(=O)O` [(R)-8-hydroxynonanoic acid], the Kd in test [1] (read-out: Kd) was 600 ± 1.9 µM; in test [2] it was 500 ± 2.3 µM.
In the same order, the values of `C[C@@H](O)CCCC/C=C/C(=O)O` [(R,E)-8-hydroxynon-2-enoic acid, (R, E)-8-hydroxynon-2-enoic acid] are 900 ± 0.9 µM and 290 ± 2 µM.
As for `C[C@H](CCCC/C=C/C(=O)O)O[C@@H]1O[C@@H](C)[C@H](O)C[C@H]1O` [ascr#3], the “competition with [3H]-palmitic acid for binding to Na-ASP-2” value in test [3] is given as “competed”. In test [4], the “competition with [3H]-palmitic acid for binding to Pry1, excess ligand” value is “could not be competed” and the “competition with [3H]-palmitic acid for binding to Pry1” value is recorded as “neither ascr#3 (1) nor oscr#10 (2) bound”. The Kd result in test [1] is listed as “does not bind”. The “competition with [3H]-cholesterol for binding to Na-ASP-2” value (“competition with [3H]-cholesterol” below) in test [5] is “neither ascarosides [ascr#3 (1) and oscr#10 (2)] nor fatty acids (3-5) competed”. In [2], this molecule registered a Kd of 142 µM.
As for `CC(C)CCC[C@@H](C)[C@H]1CC[C@H]2[C@@H]3CC=C4C[C@@H](O)CC[C@]4(C)[C@H]3CC[C@]12C` [cholesterol], the Kd in [6] was 1.53 µM; in test [7] it was 0.9 µM; in test [8], 2.4 µM; in test [5] it was 2.1 µM. Also, the “competition with [3H]-cholesterol” value in test [5] is “reduced binding of the radioligand”.
For `C[C@@H]1O[C@@H](OCCCCCCCCC(=O)O)[C@H](O)C[C@H]1O` [oscr#10], in [4], the “competition with [3H]-palmitic acid for binding to Pry1, excess ligand” value is “could not be competed” and the “competition with [3H]-palmitic acid for binding to Pry1” value is listed as “neither ascr#3 (1) nor oscr#10 (2) bound”. The Kd entry in test [1] is given as “does not bind”. For the same molecule, the “competition with [3H]-cholesterol” value in [5] is “neither ascarosides [ascr#3 (1) and oscr#10 (2)] nor fatty acids (3-5) competed”. Further, the Kd result in [2] (microscale thermophoresis, His-tagged Na-ASP-2, N/A where there is no binding, mean ± SD of three experiments) is reported as “does not bind”.
For `CCCCCCCCCCCCCCCC(=O)O` [palmitic acid, reference compound], the Kd in test [3] was 95 µM; in test [9], 112 µM; in test [10], 94 µM; in test [1] (read-out: Kd), 120 ± 1.2 µM; in test [2] it was 220 ± 1 µM; in test [11], 83 µM. Also, the “competition with [3H]-palmitic acid for binding to Na-ASP-2” value in test [3] is “reduced”.
